Consider three compounds from PubChem BioAssay AID588658 (The Scripps Research Institute Molecular Screening Center, 2011).

Structures are written as SMILES.

Broadly, the inhibition is the drop in the measured response relative to a control, in per cent.

Assay [1] relates to HT29 cells, phospho-p38 western blot, 24 h. The experiment in a line: phospho-p38 level change, either direction, late-stage follow-up, counter-screen for KLF5 inhibitor project, HT29 cells, chemiluminescent western blot, powder samples (AID 588658). As to conditions: measured here: phospho-p38 fold change vs DMSO; at 10 µM. (Counterscreens check selectivity or assay interference.)

In assay [2] the target is Mitogen-activated protein kinase 14 (Homo sapiens) (UniProt Q16539). Described as above. As to conditions: HT29 cells, phospho-p38 western blot, 24 h; at 10 µM; stronger effect = higher value. In general terms: A western blot detects proteins with antibodies after separation by electrophoresis.
Mitogen-activated protein kinase 14 (Homo sapiens), sequence (Q16539 whole entry, looked up): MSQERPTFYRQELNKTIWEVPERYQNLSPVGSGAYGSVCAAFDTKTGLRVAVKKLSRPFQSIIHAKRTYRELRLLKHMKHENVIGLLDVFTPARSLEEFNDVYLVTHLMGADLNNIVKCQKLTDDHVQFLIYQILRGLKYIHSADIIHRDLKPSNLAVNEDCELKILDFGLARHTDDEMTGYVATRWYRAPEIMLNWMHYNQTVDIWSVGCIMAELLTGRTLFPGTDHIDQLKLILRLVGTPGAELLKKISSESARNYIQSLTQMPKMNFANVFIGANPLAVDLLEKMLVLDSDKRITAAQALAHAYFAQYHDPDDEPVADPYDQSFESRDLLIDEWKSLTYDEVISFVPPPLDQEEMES

In assay [1], `CN(C(=O)COC(=O)/C=C/c1cccc([N+](=O)[O-])c1)C1CCS(=O)(=O)C1` (stereo unspecified) had a fold change of 1.85. Besides, in assay [2], the inhibition was -85.3%.
Taken in the same sequence, the figures for `CN(C(=O)CNC(=O)/C=C/c1cccc(Cl)c1)C1CCS(=O)(=O)CC1` were 3.93 and -293%.
Taken in the same sequence, the figures for `CN(C(=O)CNC(=O)/C=C/c1cccc(Cl)c1)C1CCS(=O)(=O)C1` (stereo unspecified) were 3.85 and -285%.
